Drawing on patent US20250002475A1 (EPICS THERAPEUTICS, priority 2023, published 2025), this text covers IC50 for 11 compounds.

The test system of one assay is Kasumi-1 cells. Nature of the assay: Kasumi-1 cellular viability assay (ATP-Lite, 72 h). The format is cell-based. To be noted: Homo sapiens, ATP-Lite luminescence, % viability relative to DMSO. An outline of the steps: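 Kasumi-1 AML cells, 15000/well in RPMI-1640 with 10% FBS, were exposed to compound titrations (0.1% final DMSO) for 72 h at 37 °C, 5% CO2. ATP-Lite One Step luminescence gave % viability versus DMSO control, and IC50 came from the concentration-response.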

Assay [1] deals with T1, recombinant METTL3/METTL14 complex (Homo sapiens, UniProt Q86U44).
T1 construct: purchased Active Motif 311970; host or cells: Sf9 cells
Nature of the assay: METTL3/14 Scintillation Proximity Assay (SPA), RNA methyltransferase activity. The assay is classed as biochemical. To be noted: 5.31 nM METTL3/14 complex, 250 nM RNA substrate, 1 μM 3H-SAM, 90 min; for compounds marked * best of the two separated forms.

For a further assay, the system named is Caov-3 cells. Put plainly: Caov-3 cellular viability assay (ATP-Lite, 72 h). To be noted: Homo sapiens, ATP-Lite luminescence, % viability relative to DMSO. The format is cell-based. An outline of the steps: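 10000 cells/well treated 72 h at 37 °C, 5% CO2, in RPMI-1640 with 10% FBS and 0.1% DMSO final. Viability by ATP-Lite One Step luminescence. Expressed as % of DMSO control, with IC50 from each compound's concentration-response curve.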

T1 sequence (Q86U44 whole entry): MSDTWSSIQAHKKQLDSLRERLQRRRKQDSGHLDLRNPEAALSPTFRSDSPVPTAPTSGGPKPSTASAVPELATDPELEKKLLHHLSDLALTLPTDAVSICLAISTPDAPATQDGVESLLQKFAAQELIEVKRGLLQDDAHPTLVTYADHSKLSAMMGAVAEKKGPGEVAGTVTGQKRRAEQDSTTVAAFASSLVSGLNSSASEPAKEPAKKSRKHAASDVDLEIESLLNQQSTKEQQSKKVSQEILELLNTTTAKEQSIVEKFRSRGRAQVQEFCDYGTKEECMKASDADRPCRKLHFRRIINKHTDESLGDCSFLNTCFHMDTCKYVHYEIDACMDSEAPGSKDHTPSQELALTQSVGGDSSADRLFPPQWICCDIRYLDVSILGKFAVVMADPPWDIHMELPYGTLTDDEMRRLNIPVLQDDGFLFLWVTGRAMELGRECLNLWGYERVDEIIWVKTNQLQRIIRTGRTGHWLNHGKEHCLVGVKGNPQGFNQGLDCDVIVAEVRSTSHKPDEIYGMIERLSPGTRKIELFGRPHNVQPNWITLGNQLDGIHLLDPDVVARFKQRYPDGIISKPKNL
T1 sequence (Q9HCE5 whole entry partner): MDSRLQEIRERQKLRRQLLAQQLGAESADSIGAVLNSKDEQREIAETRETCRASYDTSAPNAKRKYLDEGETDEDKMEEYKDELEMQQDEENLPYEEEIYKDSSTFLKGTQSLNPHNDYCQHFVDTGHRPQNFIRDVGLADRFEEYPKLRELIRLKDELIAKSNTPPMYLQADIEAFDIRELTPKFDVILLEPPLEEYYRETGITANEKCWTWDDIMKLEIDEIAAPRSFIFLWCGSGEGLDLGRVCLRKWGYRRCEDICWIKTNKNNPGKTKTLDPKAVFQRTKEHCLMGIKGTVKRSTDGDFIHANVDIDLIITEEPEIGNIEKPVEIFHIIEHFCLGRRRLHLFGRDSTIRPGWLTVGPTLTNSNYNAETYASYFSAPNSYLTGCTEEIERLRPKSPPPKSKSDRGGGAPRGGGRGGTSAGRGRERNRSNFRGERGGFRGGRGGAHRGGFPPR

`COc1cncc(-c2cn(C(C)c3ccc(N4CCC[C@@H](NCC5CCC5)C4)cn3)nn2)c1` (single isomer, unassigned) [Compound 073]: the half-maximal inhibitory concentration (IC50) (commonly the concentration that gives 50% inhibition) was 500 to 5000 nM in the assay on Kasumi-1 cells, at most 50 nM in assay [1] and 500 to 5000 nM in the assay with Caov-3 cells.
In the case of `CN1CC(c2ccc(N3CCC[C@@H](NCC4CC4)C3)cn2)(n2cc(-c3cncc(C4CC4)c3)nn2)C1` [Compound 350, (R)-N-(cyclopropylmethyl)-1-(6-(3-(4-(5-cyclopropylpyridin-3-yl)-1H-1,2,3-triazol-1-yl)-1-methylazetidin-3-yl)pyridin-3-yl)piperidin-3-amine], the IC50 with Kasumi-1 cells was 500 to 5000 nM; in assay [1], at most 50 nM; with Caov-3 cells, 500 to 5000 nM.
Take `CC(c1ccc(N2CCC[C@@H](NCC3CC3)C2)cn1)n1cnc(-c2cncc(N3CCCC3)n2)c1` (single isomer, unassigned) [Compound 355]: the IC50 in the assay with Kasumi-1 cells is at most 500 nM; in assay [1], at most 50 nM; with Caov-3 cells, at most 500 nM.
Consider `COc1cc(-c2cn(Cc3ccc(N4CCCC(N5CCC6(CCC6)C5)C4)nn3)nn2)c2cn[nH]c2c1` (stereo not drawn) [Compound 008, 4-(1-((6-(3-(6-azaspiro[3.4]octan-6-yl)piperidin-1-yl)pyridazin-3-yl)methyl)-1H-1,2,3-triazol-4-yl)-6-methoxy-1H-indazole], for which the figures for the half-inhibitory concentration (IC50) (in the assay on Kasumi-1 cells; in assay [1]; with Caov-3 cells) were above 5000 nM, at most 50 nM and 500 to 5000 nM, respectively.
Taken in the same sequence, the figures for `CC(c1ccc(N2CCC[C@@H](NCC3CC3)C2)nn1)n1cnc(-c2cncc(C3CC3)c2)c1` (single isomer, unassigned) [Compound 342] were at most 500 nM, at most 50 nM and at most 500 nM.
On the same counts, the results for `O=C(NCc1ccc(N2CCC[C@@H](NCC3CCC3)C2)cn1)c1cc(=O)n2ccccc2n1` [Compound 060, (R)-N-((5-(3-((cyclobutylmethyl)amino)piperidin-1-yl)pyridin-2-yl)methyl)-4-oxo-4H-pyrido[1,2-a]pyrimidine-2-carboxamide] are above 5000 nM, at most 50 nM and above 5000 nM.
Turning to `COc1cc(-c2cn(Cc3ccc(N4CCC[C@@H](NCC5CC5)C4)nn3)nn2)c2cn[nH]c2c1` [Compound 015, (R)-N-(cyclopropylmethyl)-1-(6-((4-(6-methoxy-1H-indazol-4-yl)-1H-1,2,3-triazol-1-yl)methyl)pyridazin-3-yl)piperidin-3-amine], the figures for the IC50 (in the assay with Kasumi-1 cells; in assay [1]; in the assay with Caov-3 cells) were 500 to 5000 nM, at most 50 nM and at most 500 nM, respectively.
Consider `COc1cnc(C#N)c(-c2cn(Cc3ccc(N4CCC[C@@H](NCC5CCC5)C4)nn3)nn2)c1` [Compound 019, (R)-3-(1-((6-(3-((cyclobutylmethyl)amino)piperidin-1-yl)pyridazin-3-yl)methyl)-1H-1,2,3-triazol-4-yl)-5-methoxypicolinonitrile], for which the IC50 in the assay with Kasumi-1 cells was above 5000 nM; in assay [1] it was at most 50 nM; in the assay with Caov-3 cells, above 5000 nM.
With `Cn1c(N2CCCC2)cc(NC(=O)C2(c3ccc(N4CCC[C@@H](NCC5CCC5)C4)cn3)COC2)cc1=O` [Compound 310, (R)-3-(5-(3-((cyclobutylmethyl)amino)piperidin-1-yl)pyridin-2-yl)-N-(1-methyl-2-oxo-6-(pyrrolidin-1-yl)-1,2-dihydropyridin-4-yl)oxetane-3-carboxamide], the concentration for half-maximal inhibition (IC50) in the assay on Kasumi-1 cells is 500 to 5000 nM; in assay [1], at most 50 nM; in the assay on Caov-3 cells, at most 500 nM.
In the case of `CC(c1ccc(N2CCC[C@@H](NCC3CCC3)C2)cn1)n1cc(-c2cncc(N3CC4CC4C3)n2)nn1` (single isomer, unassigned) [Compound 286], the IC50 with Kasumi-1 cells is at most 500 nM; in assay [1] it was at most 50 nM; in the assay on Caov-3 cells, at most 500 nM.
As for `O=C(Nc1cncc(N2CCCC2)n1)C1(c2ccc(N3CCC[C@@H](NCC45CC(F)(C4)C5)C3)cn2)COC1` [Compound 269, (R)-3-(5-(3-(((3-fluorobicyclo[1.1.1]pentan-1-yl)methyl)amino)piperidin-1-yl)pyridin-2-yl)-N-(6-(pyrrolidin-1-yl)pyrazin-2-yl)oxetane-3-carboxamide], the IC50 is at most 500 nM with Kasumi-1 cells, at most 50 nM in assay [1] and at most 500 nM in the assay on Caov-3 cells.
